According to patent publication US9522377B2, “Method for improving the properties of amphiphile particles” (CAMURUS AB, priority 2003, dated 2016):

Columns and labels:
[1] = for influence of drug on properties of the dispersions: 0.3% drug, GMOrphic/12% P407, non-autoclaved and autoclaved; for effect on lattice constant of cubic phase, autoclaved dispersions / effect on particle size of autoclaved dispersions: autoclaved 121° C., 15+5 min; for influence on non-autoclaved dispersions: chloramphenicol 0.3, 1 and 2%, miconazole 0.3 and 1%
Experimental: All drug concentrations are indicated relative to the sum of monoglyceride and poloxamer. A drug-free dispersion was prepared and investigated as a reference.
All dispersions were autoclaved at 121° C. for 15+5 min. (allowing for temperature equilibration in the autoclave) and their properties were compared to that of the corresponding non-autoclaved dispersions.

[2] = Active agent loading of cubic particles; type: physicochemical
Experimental: To the dispersions is added the cationic peptide desmopressin to a concentration of 1 mg/ml. The dispersion is allowed to equilibrate for 60 minutes at room temperature and reanalyzed for particle size and optionally phase behaviour. The particle size is not affected as determined using laser diffraction.
A dispersion of cubic particles of formulation GMO/OA/F-127 (84.5:4.5:10) was prepared as in Example 24. The steroid hormone progesterone was incubated with the cubic particles at room temperature as described for desmopressin in Example 22. The equilibrium loading level was 3% by weight.
The above method was repeated by the active agent progesterone was included in the aqueous phase prior to the homogenisation and heat treatment steps. The loading level was again examined and established to be 18 wt %. The effect upon the particle size distribution was minimal.

Compound	influence of drug on properties of the dispersions [1]	effect on lattice constant of cubic phase, autoclaved dispersions [1]	effect on particle size of autoclaved dispersions [1]	influence on non-autoclaved dispersions [1]	further results
COC1=C(OC)C(=O)C(C/C=C(\C)CC/C=C(\C)CC/C=C(\C)CC/C=C(\C)CC/C=C(\C)CC/C=C(\C)CC/C=C(\C)CC/C=C(\C)CC/C=C(\C)CCC=C(C)C)=C(C)C1=O [Ubidecarenone, ubidecarenone]	did not influence the properties of the resulting dispersions				
CCCCC(=O)O[C@]1(C(=O)CO)[C@@H](C)C[C@H]2[C@@H]3CCC4=CC(=O)C=C[C@]4(C)[C@@]3(F)[C@@H](O)C[C@@]21C [betamethasone-17-valerate]					influence of drug on general behaviour of the dispersions ([1]; 0.3, 1 or 2% drug): no influence on the general behaviour of the dispersions
O=C(N[C@H](CO)[C@H](O)c1ccc([N+](=O)[O-])cc1)C(Cl)Cl [chloramphenicol]		slight increase in lattice constant	particle sizes increased distinctly with drug concentration	no influence on the non-autoclaved dispersions	
Clc1ccc(COC(Cn2ccnc2)c2ccc(Cl)cc2Cl)c(Cl)c1 (centres unmarked) [miconazole]		decreased slightly	slightly larger (0.3%) and distinctly larger (1%) particle sizes	no influence on the non-autoclaved dispersions	
CC(=O)[C@H]1CC[C@H]2[C@@H]3CCC4=CC(=O)CC[C@]4(C)[C@H]3CC[C@]12C [progesterone]					loading level ([2]; included in aqueous phase prior to homogenisation and heat treatment, GMO/OA/F-127 (84.5:4.5:10)): 18 wt %; equilibrium loading level ([2]; incubated with GMO/OA/F-127 (84.5:4.5:10) cubic particles at room temperature): 3 % by weight
CC(=O)Oc1c(C)c(C)c2c(c1C)CCC(C)(CCC[C@H](C)CCC[C@H](C)CCCC(C)C)O2 (some centres unmarked) [tocopherol acetate]	did not influence the properties of the resulting dispersions				
